Data: patent publication US11000033B2, “Ketone or oxime compound, and herbicide” (NISSAN CHEMICAL CORPORATION, priority 2014, dated 2021)

How the values were obtained:
Type in all cases: in vivo
Stellaria media [1] = assay: Test Example 5: herbicidal effect by foliage application, plastic box (symbol P); details: 320 g/ha, 3 weeks after application
In short: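 Herbicide, formulated as an emulsion and diluted in water, is sprayed onto the aerial parts of 14-day seedlings. These were grown at 25° C. to 30° C. in sterilized diluvial soil; effects are graded after 3 weeks.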

Cyperus difformis = assay: Test Example 3: herbicidal effect by foliage application, Wagner pot (symbol E); details: application herbicide amount 320 g/ha
In short: (§1)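 Plants sown in submerged alluvial soil (water depth 0.1–0.5 cm) in a 25–30 °C greenhouse and grown 14 days. An emulsion of the compound diluted in water to a set herbicide amount was sprayed uniformly on foliage. Effect on each plant scored 3 weeks after application.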

[2] = system: Echinochloa oryzacola Vasing.; assay: Test Example 2: herbicidal activity, application during weed generation in submerged conditions (symbol A); details: Table 23; application herbicide amount 320 g/ha; grade 0-5 by criteria of Test Example 1
In short: (§2)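 Seeds sown in flooded alluvial soil (4 cm water) were grown in a 25-30° C greenhouse. At the one- to two-leaf stage, diluted emulsion of compound was applied to the water surface at a predetermined rate. Effect was scored 3 weeks later.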

Stellaria media [3] = assay: Test Example 4: herbicidal effect by soil treatment (symbol P); details: application herbicide amount 320 g/ha
In short: (§3)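 Seeds were sown in sterilized diluvial soil, covered with about 1.5 cm of soil, and the soil surface was sprayed with a water-diluted emulsion of the compound at a predetermined rate. Plants grew in a greenhouse at 25° C. to 30° C.; effects were scored visually 3 weeks after application.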

[4] = system: Echinochloa crus-galli var. crus-galli; assay: Test Example 3: herbicidal effect by foliage application, Wagner pot (symbol H); details: application herbicide amount 320 g/ha
In short: as §1

Setaria viridis = assay: Test Example 4: herbicidal effect by soil treatment (symbol G); details: application herbicide amount 320 g/ha
In short: as §3

Veronica persica = assay: Test Example 4: herbicidal effect by soil treatment (symbol R); details: application herbicide amount 320 g/ha
In short: as §3

Alopecurus myosuroides = assay: Test Example 4: herbicidal effect by soil treatment (symbol J); details: application herbicide amount 320 g/ha
In short: as §3

Leptochloa chinensis = assay: Test Example 3: herbicidal effect by foliage application, Wagner pot (symbol D); details: application herbicide amount 320 g/ha
In short: as §1

Abutilon theophrasti = assay: Test Example 4: herbicidal effect by soil treatment (symbol M); details: application herbicide amount 320 g/ha
In short: as §3

wheat = assay: Test Example 5: effect on crop by foliage application, plastic box (symbol e); details: 320 g/ha, 3 weeks after application
In short: (§4)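 Crop and weed seeds sown in spots in sterilized diluvial soil in plastic boxes and covered with about 1.5 cm soil. Plants raised in a greenhouse at 25° C. to 30° C. for foliar application.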

Digitaria ciliaris = assay: Test Example 4: herbicidal effect by soil treatment (symbol F); details: application herbicide amount 320 g/ha
In short: as §3

Monochoria vaginalis = assay: Test Example 2: herbicidal activity, application during weed generation in submerged conditions (symbol C); details: Table 23; application herbicide amount 320 g/ha; grade 0-5 by criteria of Test Example 1
In short: as §2

corn = assay: Test Example 4: effect on crop by soil treatment (symbol c); details: application herbicide amount 320 g/ha
In short: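 Plants are raised in a greenhouse (25° C. to 30° C.) from spot-sown seed, which sits under about 1.5 cm of sterilized diluvial soil in a box shared with weed species.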

rapeseed = assay: Test Example 5: effect on crop by foliage application, plastic box (symbol g); details: 320 g/ha, 3 weeks after application
In short: as §4

Row | Structure (SMILES) | P: Stellaria media, herbicidal effect (criteria of Test Example 1) (Stellaria media [1]) | Herbicidal effect grade, A: Echinochloa oryzacola Vasing. [2] | herbicidal effect on H (Echinochloa crus-galli var. crus-galli), grade 0-5 [4] | herbicidal effect on D (Leptochloa chinensis), grade 0-5 (Leptochloa chinensis) | e: wheat, effect on crop (criteria of Test Example 1) (wheat) | Herbicidal effect grade, C: Monochoria vaginalis (Monochoria vaginalis) | Herbicidal effect grade, P: Stellaria media (Stellaria media [3]) | g: rapeseed, effect on crop (criteria of Test Example 1) (rapeseed) | Herbicidal effect grade, G: Setaria viridis (Setaria viridis) | Herbicidal effect grade, R: Veronica persica (Veronica persica) | Herbicidal effect grade, J: Alopecurus myosuroides (Alopecurus myosuroides) | Herbicidal effect grade, M: Abutilon theophrasti (Abutilon theophrasti) | Herbicidal effect grade, F: Digitaria ciliaris (Digitaria ciliaris) | Effect on crop grade, c: corn (corn) | also measured
1 | CCc1cc(-c2ccc(Cl)cc2)cc(C)c1C1=C(O)CC(CC(C)=NOC)C1=O (stereo not shown) [6-066] | 3 (Herbicidal ratio of 40% or higher and lower than 70%) | 5 (Herbicidal ratio of 90% or more (almost completely withered)) | 5 (Herbicidal ratio of 90% or more (almost completely withered)) | 5 (Herbicidal ratio of 90% or more (almost completely withered)) | 5 (Herbicidal ratio of 90% or more (almost completely withered)) | 0 (Herbicidal ratio of 5% or lower (almost no effect)) | – | – | – | – | – | – | – | – | herbicidal effect on E, grade 0-5 (Cyperus difformis): 5 (Herbicidal ratio of 90% or more (almost completely withered)); P: Stellaria media, herbicidal effect grade (Stellaria media [3]): 0 (Herbicidal ratio of 5% or lower (almost no effect)); G: Setaria viridis, herbicidal effect grade (Setaria viridis): 5 (Herbicidal ratio of 90% or more (almost completely withered)); R: Veronica persica, herbicidal effect grade (Veronica persica): 3 (Herbicidal ratio of 40% or higher and lower than 70%); J: Alopecurus myosuroides, herbicidal effect grade (Alopecurus myosuroides): 5 (Herbicidal ratio of 90% or more (almost completely withered)); M: Abutilon theophrasti, herbicidal effect grade (Abutilon theophrasti): 0 (Herbicidal ratio of 5% or lower (almost no effect)); F: Digitaria ciliaris, herbicidal effect grade (Digitaria ciliaris): 5 (Herbicidal ratio of 90% or more (almost completely withered)); c: corn, effect on crop grade (corn): 4 (Herbicidal ratio of 70% or higher and lower than 90%)
2 | CON=C(C)CC1CC(O)=C(c2c(C)cc(-c3cc(F)c(F)c(F)c3)cc2C)C1=O (stereo not shown) [6-104] | 4 (Herbicidal ratio of 70% or higher and lower than 90%) | 5 (Herbicidal ratio of 90% or more (almost completely withered)) | 5 (Herbicidal ratio of 90% or more (almost completely withered)) | 5 (Herbicidal ratio of 90% or more (almost completely withered)) | 5 (Herbicidal ratio of 90% or more (almost completely withered)) | 5 (Herbicidal ratio of 90% or more (almost completely withered)) | 3 (Herbicidal ratio of 40% or higher and lower than 70%) | 4 (Herbicidal ratio of 70% or higher and lower than 90%) | 5 (Herbicidal ratio of 90% or more (almost completely withered)) | 4 (Herbicidal ratio of 70% or higher and lower than 90%) | 5 (Herbicidal ratio of 90% or more (almost completely withered)) | 5 (Herbicidal ratio of 90% or more (almost completely withered)) | 5 (Herbicidal ratio of 90% or more (almost completely withered)) | 5 (Herbicidal ratio of 90% or more (almost completely withered)) | –
3 | CON=C(C)CC1CC(O)=C(c2c(F)cc(C)cc2OC)C1=O (stereo not shown) [6-108] | 3 (Herbicidal ratio of 40% or higher and lower than 70%) | 4 (Herbicidal ratio of 70% or higher and lower than 90%) | 5 (Herbicidal ratio of 90% or more (almost completely withered)) | 5 (Herbicidal ratio of 90% or more (almost completely withered)) | 3 (Herbicidal ratio of 40% or higher and lower than 70%) | 2 (Herbicidal ratio of 20% or higher and lower than 40%) | 3 (Herbicidal ratio of 40% or higher and lower than 70%) | 5 (Herbicidal ratio of 90% or more (almost completely withered)) | 4 (Herbicidal ratio of 70% or higher and lower than 90%) | 3 (Herbicidal ratio of 40% or higher and lower than 70%) | 3 (Herbicidal ratio of 40% or higher and lower than 70%) | 5 (Herbicidal ratio of 90% or more (almost completely withered)) | 5 (Herbicidal ratio of 90% or more (almost completely withered)) | 1 (Herbicidal ratio of 5% or higher and lower than 20%) | –
4 | CON=C(C)CC1CC(OC(=O)N2CCCC2)=C(c2c(C)cc(C)cc2OC)C1=O (stereo not shown) [6-110] | 1 (Herbicidal ratio of 5% or higher and lower than 20%) | 5 (Herbicidal ratio of 90% or more (almost completely withered)) | 5 (Herbicidal ratio of 90% or more (almost completely withered)) | 5 (Herbicidal ratio of 90% or more (almost completely withered)) | 4 (Herbicidal ratio of 70% or higher and lower than 90%) | 0 (Herbicidal ratio of 5% or lower (almost no effect)) | 0 (Herbicidal ratio of 5% or lower (almost no effect)) | 4 (Herbicidal ratio of 70% or higher and lower than 90%) | 0 (Herbicidal ratio of 5% or lower (almost no effect)) | 0 (Herbicidal ratio of 5% or lower (almost no effect)) | 3 (Herbicidal ratio of 40% or higher and lower than 70%) | 0 (Herbicidal ratio of 5% or lower (almost no effect)) | 0 (Herbicidal ratio of 5% or lower (almost no effect)) | 0 (Herbicidal ratio of 5% or lower (almost no effect)) | –
5 | CON=C(C)CC1CC(OC(=O)N2CCCCC2)=C(c2c(C)cc(C)cc2OC)C1=O (stereo not shown) [6-111] | 1 (Herbicidal ratio of 5% or higher and lower than 20%) | 5 (Herbicidal ratio of 90% or more (almost completely withered)) | 5 (Herbicidal ratio of 90% or more (almost completely withered)) | 5 (Herbicidal ratio of 90% or more (almost completely withered)) | 4 (Herbicidal ratio of 70% or higher and lower than 90%) | 4 (Herbicidal ratio of 70% or higher and lower than 90%) | 0 (Herbicidal ratio of 5% or lower (almost no effect)) | 4 (Herbicidal ratio of 70% or higher and lower than 90%) | 0 (Herbicidal ratio of 5% or lower (almost no effect)) | 0 (Herbicidal ratio of 5% or lower (almost no effect)) | 5 (Herbicidal ratio of 90% or more (almost completely withered)) | 0 (Herbicidal ratio of 5% or lower (almost no effect)) | 4 (Herbicidal ratio of 70% or higher and lower than 90%) | 0 (Herbicidal ratio of 5% or lower (almost no effect)) | –
